Read-outs that look alike come from different tables or passages of the source.
How the values were obtained:
skin = conditions: rabbits
tyrosinase = tyrosinase (Homo sapiens, UniProt P14679); conditions: higher than beta-arbutin; cited from earlier work
tyrosinase, sequence (P14679 19-529): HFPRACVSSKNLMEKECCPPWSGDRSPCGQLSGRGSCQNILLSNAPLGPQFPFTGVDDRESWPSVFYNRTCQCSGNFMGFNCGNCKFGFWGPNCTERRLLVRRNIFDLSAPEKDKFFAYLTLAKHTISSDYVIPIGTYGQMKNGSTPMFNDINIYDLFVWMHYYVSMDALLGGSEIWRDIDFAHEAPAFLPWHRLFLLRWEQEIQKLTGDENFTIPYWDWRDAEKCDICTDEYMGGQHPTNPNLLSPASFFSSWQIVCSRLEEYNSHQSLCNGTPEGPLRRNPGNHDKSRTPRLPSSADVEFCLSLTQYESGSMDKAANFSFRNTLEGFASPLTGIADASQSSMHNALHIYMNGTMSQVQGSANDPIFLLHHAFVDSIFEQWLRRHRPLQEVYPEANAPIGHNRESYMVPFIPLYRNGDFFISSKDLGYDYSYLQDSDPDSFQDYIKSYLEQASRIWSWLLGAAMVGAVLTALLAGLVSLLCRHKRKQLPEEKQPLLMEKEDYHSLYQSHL

Compound	skin irritant effect (skin; glycolic acid applied alone at 10% w/w)	skin irritant effect (skin; glycolic acid applied alone at 30% or 40% w/w)	stability and efficiency relative to beta-arbutin (tyrosinase) [times]
O=C(O)CO [glycolic acid]	mild skin irritant effect	moderate skin irritant	–
alpha-arbutin [alpha arbutin]	–	–	50
